Values quoted from earlier work as cited in PMC6385854, “Structural insights reveal a recognition feature for tailoring hydrocarbon stapled-peptides against the eukaryotic translation initiation factor 4E protein” (Chemical Science, 2019).

Test system: eIF4E
Details: small molecule inhibitor of the eIF4E/eIF4G interaction; cited from earlier work
Source text: We have previously used structure-based rational design and optimization strategies to develop the first generation of hydrocarbon stapled-peptides against eIF4E.[20] These are the only compounds currently reported in the literature that are able to bind to the protein-binding interface of eIF4E with nanomolar affinity. […] Moreover, it was recently shown that 4EGI-1 binds to a non-canonical site on eIF4E and allosterically regulates the binding prop ... || The previously optimized 12mer stapled-peptide (sTIP-04: ^1KKRYSR*QLL*L^12)[20] (Fig. 1) was used as a template for the derivation of two different i, i + 4 hydrocarbon stapled-peptides: (i) (sTIP-05: ^1KKRYSR*QLL*F^12) with an L12F substitution at the C-terminus and, (ii) (sTIP-06: ^1RIIYSR*QLL*L^12) with an “RII^3” substitution at the N-terminus, based on the 4EBP protein epitope.[12] These derivatives were designed to incorporate different chemical features with the anticipation to induce favorable cellular activity. Both peptides were synthesized and their binding affinity for eIF4E was de ...

SMILES	Affinity for eIF4E
O=C(O)C(Cc1ccccc1[N+](=O)[O-])=NNc1nc(-c2ccc(Cl)c(Cl)c2)cs1 (mixture of isomers) [Peptide 4EGI-1, 4EGI-1]	micromolar range
O=C(O)c1ccc(N2C(=O)/C(=C\c3ccc(-c4ccc([N+](=O)[O-])cc4)o3)C=C2c2ccccc2)cc1 [Peptide 4E1RCat, 4E1RCat]	micromolar range
